Here are results for two compounds from patent US12115184B2, “Amorphous calcium carbonate stabilized with polyphosphates or bisphosphonates” (AMORPHICAL LTD., priority 2015, dated 2024).

This experiment deals with 4T1 tumor cells. Description: Mouse bone metastasis model, intratibial 4T1 cells. As to conditions: for survival rate compared with the other groups: FIG. 8, days 13-27; for clinical signs scoring compared with the other groups: FIG. 9, days 0-27, high scoring = more clinical signs. It counts as in vivo, mouse (BALB/c). An excerpt:
The purpose of this study was to assess the potential therapeutic efficacy of ACC stabilized with triphosphate (ACC-TP) on the development and progression of bone metastases in mouse model via intraperitoneal (IP) injections. The model is induced by intra osseous inoculation of 4T1 tumor cells (cells originated from mice mammary gland tumor). Two ACC concentrations were examined. Their efficacy was compared to CaCl2 as a control calcium source and to a common treatment of bone metastases (Bisphosphonate—Alendronic acid).
The study was designed in order to assess the potential therapeutic efficacy of ACC-TP via intraperitoneal (IP) injections, on the development and progression of bone metastases in mouse model. The cancer model was induced by Intratibial injections of cancer cells to the Tibia bone. Intratibial injections are used when focusing on the relationships of cancer cells and bone after a tumor has metastasized, thus is considered the most appropriate for such studies.
Female mice (BALB/c, 9 weeks old) were used for the experiment. […] Initial body weight was 16-19 gr. The mice were let to acclimatize 5 days prior to the experiment.
The first control or test items administration day was defined as “Day 1”. On study day “0” all mice were anesthetized used intraperitoneal injection of Ketamine (80 mg/kg) and Xylazine (5 mg/kg). 4T1 (CRL-2539, B1) cells were injected intratibial into the Tibia in a dose level of 70×10^3 cells and dose volume of 10 μl per animal.
The control or test Items comprising calcium were administered intraperitoneally by a 25 G needle, daily (6 days a week) from Day 1 until study termination. The Alendronic acid was administered subcutaneously once a day, 3 days a week.
At study termination (Day 23 and Day 27), animals were […] by CO2 asphyxiation.
The following measurements and observations were recorded: (i) Mortality and morbidity (daily); (ii) Clinical signs observations (twice a week); (iii) Body weight measurements (once a week and at study termination); (iv) Radiographic analysis; and (v) Amount of food and water consumption (once a week).
Observations were performed for any changes in skin, fur, eyes, mucous membranes, respiratory, occurrence of secretions and excretions (e.g. diarrhea). Changes in gait, posture and response to handling, as the presence of bizarre behavior, tremors, convulsions, sleep and coma were also included.
X-ray monitoring were performed at Day “0” and Day “20” (X-ray generator Girth 8015).

Setting [1] is: after intratibial 4T1 injection on day 0.

In the case of `[Ca+2].[Cl-].[Cl-]` [CaCl2, calcium chloride], the “survival rate compared with the other groups” value is given as “lower survival percentage” and the “clinical signs scoring compared with the other groups” value is “higher number of clinical signs”. Moreover, the “mice deceased as early as day” value under setting [1] amounted to 16 days. Moreover, the survival percentages entry (up to day 23 of study duration) was “higher than 75%”.
As to `NCCCC(O)(P(=O)(O)O)P(=O)(O)O` [Alendronic acid], the “survival rate compared with the other groups” value is given as “survival rate is lower” and the “clinical signs scoring compared with the other groups” value is “highest scoring of clinical signs”. Under setting [1], the “day up to which no mice had deceased” value was determined as 19 days. In addition, the “overall performance / therapeutic effect” value (conclusion from survival rate and clinical signs) was “worst performance”.
